Where a name gives a salt, the structure may show the parent alone.
How the values were obtained:
[1] = target: T1, recombinant human LTA hydrolase (rhLTAH) (Homo sapiens, UniProt P09960); experiment: Recombinant Human LTA Hydrolase Assay for LTA Hydrolase Inhibitor Activity; type: biochemical; conditions: 250 ng rhLTA4H, 10 min preincubation, room temperature, pH 7.4, 10 min reaction, immunoassay; read-out: Recombinant Human LTA4 Hydrolase Assay IC50 LTA4
T1 construct: made in house; host or cells: Spodoptera frugiperda Sf-9 cells (baculovirus AcNPV)
T1 sequence (P09960 1-611): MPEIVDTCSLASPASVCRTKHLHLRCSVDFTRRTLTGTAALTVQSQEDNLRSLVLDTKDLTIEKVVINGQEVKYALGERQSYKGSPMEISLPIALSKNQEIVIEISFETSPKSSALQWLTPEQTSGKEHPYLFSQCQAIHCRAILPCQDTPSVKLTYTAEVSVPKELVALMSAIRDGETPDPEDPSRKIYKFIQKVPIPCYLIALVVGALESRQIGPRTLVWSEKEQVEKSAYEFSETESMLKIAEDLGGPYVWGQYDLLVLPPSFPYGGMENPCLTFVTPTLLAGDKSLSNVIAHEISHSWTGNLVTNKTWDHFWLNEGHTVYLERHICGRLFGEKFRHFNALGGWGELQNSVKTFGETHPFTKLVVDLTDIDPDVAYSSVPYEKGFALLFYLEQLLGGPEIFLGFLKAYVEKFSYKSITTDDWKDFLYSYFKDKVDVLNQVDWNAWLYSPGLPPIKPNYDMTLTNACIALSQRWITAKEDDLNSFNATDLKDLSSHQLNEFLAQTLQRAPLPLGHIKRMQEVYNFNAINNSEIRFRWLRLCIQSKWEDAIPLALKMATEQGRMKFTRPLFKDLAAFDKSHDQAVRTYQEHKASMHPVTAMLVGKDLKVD
Protocol: Recombinant Human LTA Hydrolase Assay for LTA Hydrolase Inhibitor Activity
Compounds of the present invention were tested for LTA hydrolase inhibitor activity against recombinant human LTA hydrolase (rhLTAH). Recombinant human LTA hydrolase-encoding vectors were prepared and used to express rhLTAH essentially as described by J. Gierse, et al., Protein Expression and Purification, 4, 358-366 (1993). Briefly, LTA hydrolase encoding DNA was amplified by polymerase chain reaction using a pair of oligonucleotide primers based on the nucleotide sequence from the 5'-end, and the complement of the 3'-end, of the coding region of the LTA hydrolase gene, the nucleotide sequence of which gene is known. (See, C. Funk, et al., Proc. Natl. Acad. Sci. U.S.A. 84, 6677-6681 (1987)). A λgt11 human placental cDNA library (Clonetech, Palo Alto, Calif.) provided the nucleic acid template. […] The amplified 1.9 kb DNA was isolated and cloned into the genomic baculovirus, Autographa californica nuclear polyderosis virus (AcNPC) DNA, and the baculovirus expression vector was transfected into Spodoptera frugiperda Sf-9 cells employing the calcium phosphate co-precipitation method (see, M. Summers, et al., Tex. Agric. Exp. Stn. Bull. 1555, 1-57 (1987). Recombinant LTA4 hydrolase enzyme was purified from the transfected Sf-9 cells essentially as described by J. Gierse, et al., supra.
One or more predetermined amounts of a compound of the invention were incubated in assay buffer (0.1 M potassium phosphate, 5 mg/ml fatty acid free BSA, 10% DMSO, pH 7.4) for 10 minutes at room temperature with 250 ng of recombinant hLTA4 H to allow binding, if any, between the enzyme and inhibitor. The stock enzyme solution was 1 mg/m. LTA4 hydrolase, 50 mM Tris, pH 8.0, 150 mM NaCl, 2.5 mM beta-mercaptoethanol, 50% glycerol. The specific activity of the enzyme was about 650 nMoles/min/mg. LTA4 (i.e., substrate) was prepared from the methyl ester of LTA, (Biomol, Inc., Plymouth Meeting, Pa.) by treating the methyl ester with 30 molar equivalents of LiOH at room temperature for 18 hours. The LTA4 substrate in its free acid form was kept frozen at -80° C. until needed. LTA, (free acid) was thawed and diluted in assay buffer (minus DMSO) to a concentration of 350 ng/ml and 25 μl (8 ng) of LTA4 substrate was added to the reaction mixture (total volume of reaction mixture=200 μl at time zero. Each reaction was carried out at room temperature for 10 minutes. The reaction was stopped by diluting 25 μl of the reaction mixture with 500 μl of the assay buffer without DMSO. […] was quantified in the diluted sample by a commercially available enzyme-linked immunoassay [Caymen Chemical Col. Ann Arbor, Mich.] using the method recommended in the manufacturer's instructions and compared to the amount of […] produced in a negative control (i.e., essentially identical conditions except without addition of an inhibitor compound). The IC50 was routinely calculated from the data produced.

[2] = system: LTB4 production in calcium ionophore-stimulated human blood; experiment: LTB4 Production by Calcium Ionophore Stimulated Human Blood (HWB); type: cell-based; conditions: human blood diluted 1:4, 15 min preincubation at 37° C., ionophore 20 mcg/ml, 10 min; read-out: Inhibition of Calcium Ionophore-induced LTB4 Production in Human Blood IC50 HWB
Protocol: LTB4 and Thromboxane Production by Calcium Ionophore Stimulated Human Blood for LTB4 Hydrolase Inhibitor Activity
Human blood, collected in heparin-containing Vacutainer tubes, was diluted 1:4 with RPMI-1640 media and 200 μl of the diluted blood was added into each of a 96-well microtiter plate. One or more concentrations of the leukotriene A4 hydrolase inhibitor compounds being tested were prepared (diluted in DMSO) and 2 μl added and gently mixed with the diluted whole blood. After incubating for 15 minutes at 37° C. in a humidified incubator, calcium ionophore […] (Sigma Chemical Co., St. Louis, Mo.) was added to a final concentration of 20 mcg/ml and the incubation continued under the same conditions for an additional 10 minutes to allow LTB4 formation. The reaction was terminated by centrifugation (833 g, 10 minutes at 4° C.) and supernatant were analyzed for LTB4 and thromboxane by commercially available enzyme-linked immunoassays (Caymen Chemical Co., Ann Arbor, Mich.) according to the manufacturer's instructions. The IC50 of each test compound was determined from the amount of inhibition of LTB4 production as compared to an essentially identical assay in which no inhibitor compound was present.

[3] = system: LTB4 production in calcium ionophore-stimulated mouse blood; experiment: Murine Ex Vivo LTB4 Inhibition, calcium ionophore stimulated mouse blood after oral gavage; type: in vivo; conditions: blood collected 1 hour after administration, ionophore A23187 20 mcg/ml, read-out: Murine Ex Vivo LTB4 Inhibition % I LTB4 at 1 hour after administration of 10 mg/kg
Protocol: Ex Vivo LTB4 and Thromboxane Production by Calcium Ionophore Stimulated Mouse Blood for LTB4 Hydrolase Inhibitor Activity
Leukotriene A4 hydrolase inhibitor compounds of the present invention were diluted to a predetermined concentration in phosphate buffered saline containing 2%; DMSO and 1% Tween 80. The compounds were administered by oral gavage to adult male outbred mice weighing approximately 20-30 gm at a dose of 10 mg/kg body weight. (Compounds given at a dose of 50 mg/kg body weight are designated in following Table by the symbol, *) Sixty (60) minutes after administration of an LTA4 inhibitor compound of the invention, blood was collected (into heparin-containing tubes) from the retroorbital sinus. […] The mixture was incubated for 10 minutes at 37° C. in a humidified incubator. The reaction was terminated by centrifugation (833 g. 10 minutes at 4° C.). Supernatant were analyzed for LTB4 and thromboxane by commercially available enzyme-linked immunoassays [Caymen Chemical Co., Ann Arbor, Mich.] in accordance with the manufacturer's instructions. The percent inhibition was determined by comparison to animals treated identically except that the solution administered by oral gavage was devoid of inhibitor compound.

granulocyte = conditions: R. Lewis, et al., 1990; cited from earlier work
LTA4 hydrolase = conditions: background statement, no value; cited from earlier work

Row | IC50 [1] [nM] | IC50 [2] [nM] | SMILES | inhibition at 10 mg/kg [3] [%] | granulocyte agonist activity inducing chemotaxis, aggregation, degranulation, adherence and priming (granulocyte) | LTA4 hydrolase inhibitory activity (LTA4 hydrolase)
1 | 4 | 53 | N=C(COc1ccc(Cc2ccccc2)cc1)N1CCCC1 [Example 3, α[[4-(phenylmethyl)phenoxy)methyl]-1-pyrrolidinemethanimine, monohydrochloride] | 46 | – | –
2 | 4.3 | 85 | N=C(COc1ccc(Cc2ccccc2)cc1)N1CCCCC1 [Example 4, α[[4-(phenylmethyl)phenoxy)methyl]-1-peperidinemethanimine, monohydrochloride] | 30 | – | –
3 | 1.3 | 71 | CCOC(=O)C1CCN(C(=N)COc2ccc(Cc3ccccc3)cc2)CC1 [Example 5, ethyl 1-[1-imino-2-[4-(phenylmethyl)phenoxy]ethyl]-4-piperidinecarboxylate,monohydrochloride] | 62 | – | –
4 | 23 | 200 | CCOC(=O)CCNC(=N)COc1ccc(Cc2ccccc2)cc1 [Example 6, ethyl 3-[[1-imino-2-[4-(phenylmethyl)phenoxy]ethyl]amino]propanoate, monohydrochloride] | 54 | – | –
5 | 70 | 220 | c1ccc(Cc2ccc(OCC3=NCCN3)cc2)cc1 [Example 7, 4,5-dihydro-2-[[4-(phenylmethyl)phenoxy]methyl]-1H-imidazole] | 33 | – | –
6 | 1170 | 550 | COC(=O)CCN1CCN=C1COc1ccc(Cc2ccccc2)cc1 [Example 8] | 68 | – | –
7 | 17 | 77 | N=C(COc1ccc(Cc2ccccc2)cc1)N1CCC(C(N)=O)CC1 [Example 9, 1-[1-imino-2-[4-(phenylmethyl)phenoxy]ethyl]-4-piperidinecarboxamide] | 30 | – | –
8 | 7800 | – | N=C(COc1ccc(Cc2ccccc2)cc1)NC1C2CC3CC(C2)CC1C3 (stereo not shown) [Example 11, 2-[4-(phenylmethyl)phenoxy]-N-(tricyclo[3.3.1.1 3,7]decan-2-yl)ethanimidamide, monohydrate] | – | – | –
9 | > 100000 | 17900 | NC(COc1ccc(Cc2ccccc2)cc1)=NO [Example 12, N'-hydroxy-2-[4-(phenylmethyl)phenoxy]ethanimidamine] | 63 | – | –
10 | 200 | 190 | c1ccc(Cc2ccc(OCC3=NC4CCCCC4N3)cc2)cc1 (stereo not shown) [Example 13] | 71 | – | –
11 | 53 | 640 | N=C(CCCOc1ccc(Cc2ccccc2)cc1)N1CCCCC1 [Example 16, α-[3-[4-(phenylmethyl)phenoxy)propyl]-1-peperidinemethanimine, monohydrochloride] | 60 | – | –
12 | 64 | 640 | c1ccc(Cc2ccc(OCCCC3=NCCN3)cc2)cc1 [Example 17] | 28 | – | –
13 | – | – | CCCCC/C=C\C[C@@H](O)/C=C/C=C/C=C\[C@@H](O)CCCC(=O)O [LTB4] | – | potent granulocyte agonist | –
14 | – | – | CC(C)C[C@H](NC(=O)[C@@H](O)[C@H](N)Cc1ccccc1)C(=O)O [bestatin] | – | – | exhibit LTA4 hydrolase inhibitory activity
15 | – | – | C[C@H](CS)C(=O)N1CCC[C@H]1C(=O)O [captopril] | – | – | exhibit LTA4 hydrolase inhibitory activity

Row | SMILES | IC50 [1] [nM] | IC50 [2] [nM] | inhibition at 10 mg/kg [3] [%] | granulocyte agonist activity inducing chemotaxis, aggregation, degranulation, adherence and priming (granulocyte) | LTA4 hydrolase inhibitory activity (LTA4 hydrolase)
16 | N=C(N)COc1ccc(Cc2ccccc2)cc1 [Example 10, 1-imino-2-[4-(phenylmethyl)phenoxy]ethanamine] | 89 | 480 | 0 | – | –
